Experimental data published in patent publication US20030217378A1, “Cloning using rapidly matured oocytes” (The University of Georgia Research Foundation, Inc, priority 2002, published 2003).
Several values for one entry are separate records, joined by “and”; a condition that tells them apart may be missing. Identical values can stand only once.

Tests used:
Assay type in all cases: cell-based
[1] = system: porcine embryos reconstituted with 42-h-matured oocytes; test: Experiment 5: in vitro development of porcine nuclear transfer embryos reconstituted with 42-h-matured oocytes treated with dbcAMP
Protocol: (§1) Ovaries were collected from prepubertal gilts at a local slaughterhouse and transported to the laboratory at 30-35° C. Antral follicles (2-5 mm in diameter) were aspirated with an 18-gauge needle using vacuum suction (40 mm Hg). […] Oocytes were cultured in 4-well plates (Nunc, Roskilde, Denmark) containing 500 μl of each medium. TCM-199 (Gibco) supplemented with 3.05 mM D-glucose, 0.91 mM Na-pyruvate, 0.57 mM cysteine, 10 ng/ml epidermal growth factor (Sigma), 10 IU/ml eCG (Sioux Biochemicals, Sioux Center, Iowa), 10 IU/ml hCG (Intervet, Millsboro, Del.), and 10% (v:v) porcine follicular fluid was used as a basic maturation medium.
At the end of maturation, cumulus cells were removed by vortexing with 0.1% (w:v) hyaluronidase (Sigma) and denuded oocytes were transferred into 100 μl of Hepes-buffered TCM-199 with the osmolarity adjusted to 300 mOsm by adding sorbitol supplemented with 7.5 μg/ml cytochalasin B (Sigma) and 10% FCS (manipulation medium). The first polar body and MII plate were removed by aspiration with a 15-μm inner diameter glass pipette. The oocytes had been previously stained in the manipulation medium supplemented with 5 μg/ml Hoechst 33342 (Sigma) for 20 min and confirmation of successful enucleation was achieved by visualizing the cytoplast and removed cytoplasm under ultraviolet light. After enucleation, a donor cell was inserted into the perivitelline space of each enucleated oocyte using the same glass pipette. Cell-oocyte complexes were washed in TCM-199 supplemented with 10% FCS, transferred to the same medium and kept in a CO2 incubator adjusted to 5% CO2 in air at 38.5° C. until fusion.
The chamber for fusion was a 100 mm dish filled with 15 ml of Zimmerman fusion medium, Zimmerman, et al., Electric field-induced cell-to-cell fusion. J Membr Biol 1982, 67: 165-182. Two stainless steel wires (100 μm diameter) were used as electrodes and they were attached to micromanipulators. The single cell-oocyte complex was sandwiched between the electrodes and oriented with the contact surface between the cytoplast and the donor cell perpendicular to the electrodes. The distance between the electrodes was about 100 μm. Membrane fusion was induced by applying a single direct current pulse of 250 V/mm for a duration of 20 μsec with a prepulse of alternating current field of 5 V, 1 MHz for 2 sec using an LF 101 Fusion Machine (TR Tech Co., Tokyo, Japan). Following the fusion pulse, the complexes were washed in G1.2 medium, Gandhi, et al., Substrate utilization in porcine embryos cultured in NCSU23 and G1.2/G2.2 sequential culture media, Mol Reprod Dev 2001, 58: 269-275 and cultured for a period of 1 h in 100 μl of the same medium. Fusion was then determined by microscopic examination.
At 3 h after fusion, fused embryos were washed once in Zimmerman fusion medium and then placed between 2 wire electrodes (1 mm apart) of the fusion chamber slide with 15 ml of the medium. Direct current pulses of 75 V/mm were applied twice to the embryos for a duration of 60 μsec at intervals of 5 sec. Activated embryos were incubated in 100 μl of G1.2 medium supplemented with 7.5 μg/ml cytochalasin B for 2 h after activation to prevent extrusion of polar bodies, Miyoshi, et al. (2000) (supra), and then transferred into G1.2 medium. After culture in G 1.2 medium for 3 days, the embryos were transferred into 100 μl of G2.2 medium, Gandhi, et al., (2001) (supra), and continued to be cultured. The embryos were examined for cleavage and blastocyst formation at 2 and 7 days of culture, respectively. At the end of the culture period, all blastocysts were counted for nuclei after Hoechst staining. The blastocysts were placed on slides with a drop of mounting medium consisting of glycerol and PBS (9: 1) containing 0.1 mg/ml Hoechst 33342. A cover slip was placed on the top of the blastocysts and the edge was sealed with fingernail polish. The numbers of nuclei were counted under ultraviolet light. […]

[2] = system: porcine oocytes; test: Experiment 2: maturation to metaphase II of porcine oocytes treated with dbcAMP for 20 h, then cultured without dbcAMP; conditions: 1 mM dbcAMP for 20 h
Protocol: as §1
Oocytes continued to be cultured for additional 4, 10, 16, and 22 h and examined for meiotic progression to the M II stage by staining with 5 μg/ml Hoechst 33342.

[3] = system: porcine oocytes; test: Experiment 1: meiotic resumption of porcine oocytes cultured in maturation medium with 1 mM dbcAMP
Protocol: as §1
After culture for each period, degenerated oocytes with lysed cytoplasmic membranes were removed.

[4] = oocytes treated with 1 mM dbcAMP for 20 h, 42-h-matured, examined at 2 days of culture
[5] = oocytes treated with 1 mM dbcAMP for 20 h, 42-h-matured, examined at 7 days of culture
[6] = oocytes treated with 1 mM dbcAMP for 20 h, M II oocytes collected at 42 h of maturation
[7] = then 4 h additional culture without dbcAMP
[8] = then 10 h additional culture without dbcAMP
[9] = then 16 h additional culture without dbcAMP
[10] = then 22 h additional culture without dbcAMP

## CCCC(=O)Nc1ncnc2c1ncn2[C@@H]1O[C@@H]2COP(=O)(O)O[C@H]2[C@H]1OC(=O)CCC [dbcAMP, dibutyryl cyclic AMP]
[1]; 42-h-matured oocytes
  difference in mean numbers of cells in the blastocysts between presence and absence of dbcAMP treatment: no significant difference
  difference in percentages of fused cell-oocyte complexes, cleaved embryos and embryos developed to blastocysts between presence and absence of dbcAMP treatment: no significant differences
[1]; oocytes treated with 1 mM dbcAMP for 20 h, 42-h-matured, blastocysts at end of culture
  Mean no. ± SEM of cells in blastocysts: 49.0 ± 7.0
[1]; [4]
  No. of embryos developed to ≧2-cell: 48
  embryos developed to ≧2-cell (%), percentage (mean ± SEM) of complexes fused: 41.4 ± 8.3%
[1]; [5]
  No. of embryos developed to Blastocyst: 2
  embryos developed to Blastocyst (%), percentage (mean ± SEM) of complexes fused: 1.7 ± 1.5%
[1]; [6]
  No. of complexes fused: 116
  complexes fused (%), percentage (mean ± SEM) of complexes treated: 80.0 ± 4.5%
[2]; at 10 h of additional culture, P<0.05
  effect of addition of dbcAMP on the percentage of M II oocytes versus absence: decreased
[2]; [7]
  No. of oocytes at the metaphase II stage: 30
  oocytes at the metaphase II stage (%), percentage (mean ± SEM) of oocytes examined: 35.3% and 35.3 ± 9.2%
[2]; [8]
  No. of oocytes at the metaphase II stage: 25
  oocytes at the metaphase II stage (%), percentage (mean ± SEM) of oocytes examined: 29.8% and 29.8 ± 1.4%
[2]; [9]
  No. of oocytes at the metaphase II stage: 54
  oocytes at the metaphase II stage (%), percentage (mean ± SEM) of oocytes examined: 67.5% and 67.5 ± 8.4%
[2]; [10]
  No. of oocytes at the metaphase II stage: 69
  oocytes at the metaphase II stage (%), percentage (mean ± SEM) of oocytes examined: 85.2 ± 5.0%
[3]; 16 h of culture
  No. of oocytes at the germinal vesicle stage: 49
  oocytes at the germinal vesicle stage (%), percentage (mean ± SEM) of oocytes examined: 77.8% and 77.8 ± 3.2%
[3]; 20 h of culture
  No. of oocytes at the germinal vesicle stage: 43
  oocytes at the germinal vesicle stage (%), percentage (mean ± SEM) of oocytes examined: 72.9% and 72.9 ± 10.4%
[3]; 24 h of culture
  No. of oocytes at the germinal vesicle stage: 33
  oocytes at the germinal vesicle stage (%), percentage (mean ± SEM) of oocytes examined: 54.1 ± 7.0%
[3]; 42 h of culture
  No. of oocytes at the germinal vesicle stage: 27
  oocytes at the germinal vesicle stage (%), percentage (mean ± SEM) of oocytes examined: 44.3% and 44.3 ± 2.6%
[3]; at each culture period (16, 20, 24, 42 h), P<0.05
  effect of addition of dbcAMP on the percentage of GV oocytes versus absence: increased
